Where a name gives a salt, the structure may show the parent alone.
Experiments:
[1] = tested on: diabetic rats; conditions: cited from earlier work
[2] = tested on: kidney; conditions: in vivo; cited from earlier work
[3] = tested on: streptozotocin-diabetic rat; conditions: cited from earlier work
[4] = tested on: red blood cells; conditions: in vivo; cited from earlier work
[5] = tested on: N-acetyl glycyl-lysine methyl ester; assay: Inhibition of cross-linking of N-acetyl glycyl-lysine methyl ester in the presence of ribose (fluorescence); type: biochemical; conditions: 0.5 M sodium phosphate buffer pH 7.4, 37° C., 16-24 hours; read-out: IC50 inhibition of cross-linking of N-acetylglycyllysine methyl ester with ribose
Description: The following method was used to evaluate the ability of the compounds of the present invention to inhibit the cross-linking of N-acetyl glycyl-lysine methyl ester in the presence of ribose.
N-acetylglycyllysine methyl ester (DP in formula below)
Ribose (R in formula below)
Test compounds (C in formula below)
0.5 M sodium phosphate buffer pH 7.4
N-acetylglycyllysine methyl ester in 0.5M sodium phosphate buffer, pH 7.4
Test compounds dissolved in the above buffer and the pH is adjusted to 7.4, if necessary
Reaction mixtures are prepared as follows:
and incubated at 37° C. for 16-24 hours. At the end of the incubation period reaction mixture is diluted with 3 ml distilled water and the fluorescence is read using an excitation wavelength of 350 nm and emission wavelength of […]. The inhibition of the cross-linking is calculated from the decrease in the fluorescence in the presence of the test compounds according to the formula:
Inhibition (%)=100×[DPRC fluorescence−RC fluorescence]/DPR fluorescence
The Inhibition by various test compounds (IC50) is as follows: […]

Molecule	IC50 [5] [µM]	further results
N=C(N)NN [aminoguanidine]		Aortic wall protein cross-linking [1]: diminishes aortic wall protein cross-linking; Immunoglobulin trapping in the kidney [2]: reduction of immunoglobulin trapping in the kidney; Increased glomerular basement membrane thickness [3]: prevented; Diabetes-induced changes in the deformability of red blood cells [4]: has been shown to prevent it in vivo
2-methyl-[6′-(3′,4′-diamino-5(4H)-one-1,2,4-triazinyl)]hydrazide	830	
COc1cccc(C(=O)C=C2NN=C(N)N(N)C2=O)c1 [3,4-diamino-6-(3′-methoxyphenylcarbonylmethylene)-1,2,4-triazine-5(4H)-one]	> 10000	

The next lines start with results.

IC50 [5] [µM]	Molecule	further results
< 3000	Cc1nnc(NN)n(N)c1=O [4-amino-3-hydrazino-6-methyl-1,2,4-triazin-5(4H)-one hydrochloride]	
> 1000	Cl.NNc1nnc(Cc2ccc(O)cc2)c(=O)n1N [4-amino-3-hydrazino-6-(4′-hydroxybenzyl)-1,2,4-triazin-5(4H)-one hydrochloride]	melting point: 218 to 222 °C (dec.)
1600	CCCCc1nnc(N)n(N)c1=O [3,4-diamino-6-butyl-1,2,4-triazine-5(4H)-one]	
